Assay results as given in patent US11959083B2, “Immunosuppression-reverting oligonucleotides inhibiting the expression of CD39” (Secarna Pharmaceuticals GmbH & Co. KG, priority 2016, dated 2024).
l = locked nucleic acid (LNA); d = 2'-deoxy (DNA)

Key:
[1] = test system: mCD39 mRNA; assay: mCD39 mRNA knockdown efficacy screen in A20 cells (single dose, gymnotic delivery, QuantiGene Singleplex); format: cell-based, mouse; conditions: 10 μM, three days, normalized to HPRT1
[2] = test system: human CD8+ T cells; assay: Proliferation and absolute cell numbers of human CD8+ T cells in presence or absence of extracellular ATP; format: cell-based; conditions: 5 μM oligonucleotide 5 days or 20 μM ARL67156 24 h
Description: (§1) FIG. 12A-12C depict human CD8^+ T cells which were labelled with cell proliferation dye, activated with anti-CD3 and treated with 5 μM of the antisense oligonucleotide A04040H (black column) or the control oligonucleotide S6 (white column) for a total treatment time of 5 days. In the vehicle control (striped column), cells were activated with anti-CD3 only. Subsequently, 400 μM of ATP or vehicle were added to cells on day 3 and day 4 after start of oligonucleotide treatment. Furthermore, as additional control, the small molecular CD39-inhibitor ARL67156 trisodium salt was added at 20 μM to cells on day 4, for an incubation time of 24 h (checked column). On day 5 after start of oligonucleotide treatment, (FIG. 12A) CD39 protein expression, (FIG. 12B) proliferation and (FIG. 12C) absolute cell numbers of CD8^+ T cells were analyzed using Flow Cytometry. Depicted is the mean of triplicate wells+/−SD.
In cancer, ATP is released from tumor cells for example after cell death induced by chemotherapy or radiation therapy. Since the CD39-CD73 axis plays an important role for T cell function the effects of A04040H on T cell proliferation in the presence or absence of extracellular ATP were investigated. Human CD8^+ T cells were labelled with cell proliferation dye, activated with anti-CD3 and treated with 5 μM of the antisense oligonucleotide A04040H or the control oligonucleotide S6 for a total treatment time of 5 days. In the vehicle control, cells were activated with anti-CD3 only. Subsequently, 400 μM of ATP or vehicle were added to cells on day 3 and day 4 after start of oligonucleotide treatment. Furthermore, as additional control, the small molecular CD39-inhibitor ARL67156 trisodium salt was added at 20 μM to cells on day 4 for an incubation time of 24 h. On day 5 after start of oligonucleotide treatment, CD39 protein expression, proliferation, and absolute cell numbers of CD8^+ T cells were analyzed using Flow Cytometry.

[3] = test system: CD39 protein; assay: CD39 protein expression in human CD8+ T cells (flow cytometry, Example 11); format: cell-based; conditions: 5 μM, 5 days, anti-CD3
Description: as §1
In cancer, ATP is released from tumor cells for example after cell death induced by chemotherapy or radiation therapy. Since the CD39-CD73 axis plays an important role for T cell function the effects of A04040H on T cell proliferation in the presence or absence of extracellular ATP were investigated. […] On day 5 after start of oligonucleotide treatment, CD39 protein expression, proliferation, and absolute cell numbers of CD8^+ T cells were analyzed using Flow Cytometry.

[4] = absence of extracellular ATP, vs vehicle
[5] = supplementation with 400 μM of ATP

Substance | Relative mCD39 mRNA expression (compared to non-treated cells) [1] | absolute cell numbers of CD8+ T cells [2, 4] | proliferation of CD8+ T cells [2, 4] | absolute numbers of CD8+ T cells [2, 5] | proliferation of CD8+ T cells [2, 5] | CD39 protein expression [3]
+C*+G*+T*T*T*A*G*G*C*T*A*T*G*T*A*+C*+T*+T (CGTTTAGGCTATGTACTT; chemistry not fully specified) [neg1, negative control antisense oligonucleotide not hybridizing with CD39, described in WO2014154843 A1, reference compound] | 0.67 |  |  |  |  | 
+G*+T*+T*T*G*T*G*T*G*A*G*A*G*C*+T*+T (antisense GTTTGTGTGAGAGCTT; sugars from the 5' end l3 d11 l2, all phosphorothioate, methylation of C not given here) [A04040H] |  | no differences | no differences | not altered | not reduced | potently suppressed
